Data: patent US20260166016A1, “GPR139 RECEPTOR AGONIST, PREPARATION METHOD THEREFOR, AND APPLICATION THEREOF” (NEUBO APPTECH CO., LTD., priority 2022, published 2026)
pEC50: −log10 of the molar value.

Biological target: T1, GPR139 (Homo sapiens, UniProt Q6DWJ6)
T1 construct: expressed in transfected cells; host or cells: HEK293
T1 sequence (Q6DWJ6 1-353): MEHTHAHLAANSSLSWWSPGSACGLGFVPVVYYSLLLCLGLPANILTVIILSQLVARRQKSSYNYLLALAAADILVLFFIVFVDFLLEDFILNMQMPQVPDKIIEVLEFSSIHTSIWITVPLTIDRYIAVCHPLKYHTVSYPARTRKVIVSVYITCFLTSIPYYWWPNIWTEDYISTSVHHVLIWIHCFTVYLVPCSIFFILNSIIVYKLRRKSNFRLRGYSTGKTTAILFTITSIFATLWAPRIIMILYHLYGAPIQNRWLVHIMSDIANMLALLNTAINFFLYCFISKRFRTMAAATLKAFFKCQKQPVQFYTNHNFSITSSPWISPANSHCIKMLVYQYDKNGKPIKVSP
Test: GPR139 FLIPR cell calcium signal detection in GPR139-transfected HEK293 cells
Type: cell-based
Conditions: HEK293 cells transfected with GPR139, read-out: EC50 values of compounds for GPR139
Procedure: HEK293 cells were grown in a 10 cm culture dish containing DMEM complete medium (containing glutamine, sodium pyruvate, penicillin/streptomycin, 10% fetal bovine serum) and incubated at 37° C. in a 5% CO2 incubator until 90% confluency. Then subculture twice a week at a ratio of 1:5. During cell passaging, the culture medium was first completely removed, washed once with 4 mL of DPBS, and then 3 mL of trypsin digestion solution was added and mixed well. When cell dissociation was observed, the trypsin solution was aspirated and 5 mL of complete DMEM medium was added. The cells were dispersed by pipetting, and 1 mL of cell suspension was added to each of five new 10 cm culture dishes. Then, 7 mL of complete DMEM medium was supplemented to each dish. After mixing, the cells were cultured at 37° C. in a 5% CO2 incubator.
On the transfection day, cells were digested and seeded into one 10 cm culture dish at appropriate density. 6 mL of DMEM/F12 medium (containing glutamine, sodium pyruvate, HEPES, and fetal bovine serum) was added, and the cells were cultured for 5 hours at 37° C. in 5% CO2. A 50 mL sterile centrifuge tube (Tube A) was taken, and 1 mL of serum-free DMEM/F12 medium (containing glutamine, sodium pyruvate, and HEPES) was added, followed by 10 μg of GPR139 DNA. The mixture was mixed well. Another 50 mL sterile centrifuge tube (Tube B) was taken, and 1 mL of serum-free DMEM medium (containing glutamine, sodium pyruvate, and HEPES) was added, followed by 60 μL of Fugene HD transfection reagent. The mixture was mixed well. 1 mL of Fugene HD transfection reagent from Tube B was transferred to Tube A, mixed well, and incubated at room temperature for 20 minutes. 2 mL of DMEM/F12 medium (containing glutamine, sodium pyruvate, HEPES, and fetal bovine serum) was added to Tube A. After mixing, 4 mL of mixture from Tube A was transferred to the prepared 10 cm dish (total volume 10 mL). The cells were cultured for 20-24 hours at 37° C. in 5% CO2.
The next day, the transfected cells were digested with trypsin digestion solution, and appropriate DMEM/F12 medium (containing glutamine, sodium pyruvate, HEPES, penicillin/streptomycin, fetal bovine serum) was added. The cells were seeded into Matrigel coated 384-well plates with a cell density of 6.67×10^6 cells/mL, 30 μL/well. The 384-well plates were cultured at 37° C. in 5% CO2.
On the third day, 10 μL/well of FLIPR dye (diluted in HEPES solution containing Pluronic and Probenecid) was added to the 384-well cell plate. And the plate was incubated for 40 minutes at 37° C. in 5% CO2. Diluted compounds were added to the cell plate and calcium signals were measured using a FLIPR plate reader.
Data were analyzed using XL-fit software to obtain EC50 values for each compound.

With C[C@H](NC(=O)CNC(=O)c1cc(Cl)ccn1)c1c(F)cccc1F [NRB181] as the molecule, how does the pEC50 read?
Its pEC50 is 7.00 to 10.00.
